From ChEMBL document CHEMBL3886494, “2′-cyano substituted nucleoside derivatives and methods of use thereof for the treatment of viral diseases” (2016)
pIC50: −log10 of the molar value.

What follows are compounds tested against Genome polyprotein (Hepatitis C virus genotype 1b (isolate BK) (HCV), UniProt P26663) (assay: Inhibition Assay: To measure inhibition of the enzymatic activity of the HCV NS5B RNA-dependent RNA polymerase by the nucleoside triphosphate compounds of the present invention, a radiolabeled nucleotide incorporation assay was used. This assay is a modified version of the assay described in International Publication No. WO2002/057287. Briefly, 50 uL reactions containing 20 mM HEPES (pH 7.3); 7.5 mM DTT; 20 units/ml RNasIN; 1 uM each of ATP, GTP, UTP and CTP; 20 uCi/mL [33P]-CTP; 10 mM MgCl; 60 mM NaCl; 100 ug/ml BSA; 0.021 uM DCoH heteropolymer RNA template; and 5 nM NS5B (1b-BKΔ55) enzyme were incubated at room temperature for 1 hour. The assay was then terminated by the addition of 500 mM EDTA (50 uL). The reaction mixture was transferred to a Millipore DE81 filter plate and the incorporation of labeled CTP is determined using Packard TopCount. Compound IC50 values can then be calculated from experiments with 10 serial 3-fold dilutions of the inhibitor in duplicate.).
Genome polyprotein, sequence (P26663 2420-3010 limits assumed): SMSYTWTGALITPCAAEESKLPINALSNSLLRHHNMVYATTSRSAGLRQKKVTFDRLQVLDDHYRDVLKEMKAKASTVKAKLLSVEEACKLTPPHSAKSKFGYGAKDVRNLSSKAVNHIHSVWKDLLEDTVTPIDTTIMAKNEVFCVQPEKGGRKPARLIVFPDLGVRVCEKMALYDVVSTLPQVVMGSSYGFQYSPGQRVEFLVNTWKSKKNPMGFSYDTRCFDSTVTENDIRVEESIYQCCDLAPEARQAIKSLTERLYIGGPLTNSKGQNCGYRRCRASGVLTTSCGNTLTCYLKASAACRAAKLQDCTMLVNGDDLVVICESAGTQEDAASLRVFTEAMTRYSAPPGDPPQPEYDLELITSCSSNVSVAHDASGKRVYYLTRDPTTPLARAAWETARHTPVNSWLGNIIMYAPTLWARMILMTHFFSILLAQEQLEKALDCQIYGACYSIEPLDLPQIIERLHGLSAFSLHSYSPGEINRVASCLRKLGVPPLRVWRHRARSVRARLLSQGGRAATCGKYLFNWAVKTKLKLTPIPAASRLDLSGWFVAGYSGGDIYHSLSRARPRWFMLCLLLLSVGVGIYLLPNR
In the case of `C[C@@]1(C#N)[C@@H](c2cnc3c(N)ncnn23)O[C@@H](COP(=O)(O)OP(=O)(O)OP(=O)(O)O)[C@@H]1O`, the pIC50 was 7.30. In the case of `C[C@@]1(C#N)[C@H](O)[C@@H](COP(=O)(O)OP(=O)(O)OP(=O)(O)O)O[C@H]1c1ccc2c(N)ncnn12`, the pIC50 was 8.52. `CC1(C#N)[C@@H](O)[C@H](COP(=O)(O)OP(=O)(O)OP(=O)(O)O)O[C@]1(C#N)c1cnc2c(=O)[nH]cnn12` (some centres not stated) was tested, and the pIC50 was less than 3.70. With `CO[C@]1(c2ccc3c(N)ncnn23)O[C@@H](COP(=O)(O)OP(=O)(O)OP(=O)(O)O)[C@H](O)[C@]1(C)C#N` the pIC50 was 7.06. With `C[C@]1(C#N)[C@H](O)[C@H](COP(=O)(O)OP(=O)(O)OP(=O)(O)O)O[C@]1(C#N)c1ccc2c(N)ncnn12` the pIC50 was 5.92. `CO[C@]1(c2cnc3c(N)ncnn23)O[C@@H](COP(=O)(O)OP(=O)(O)OP(=O)(O)O)[C@H](O)C1(C)C#N` (some centres not stated) was tested, and the pIC50 was 5.42. `CC1(C#N)[C@H](O)[C@@H](COP(=O)(O)OP(=O)(O)OP(=O)(O)O)O[C@@]1(C#N)c1cnc2c(N)ncnn12` (some centres not stated) showed a pIC50 of 4.06.
